Experimental data as given in patent US20260070945A1, “MACROCYCLIC IMMUNOMODULATORS” (Bristol-Myers Squibb Company, priority 2022, published 2026).
*1 amine or outer side, *2 acyl side, *3 side chain or, on linkers, in order; H or OH if unused. Where a SMILES comes first, the peptide text is derived from it. Bridges are numbered along the chain shown (N, C = ends). [ ]: non-standard residue; d: D form. The star is where a group is joined. ξ: configuration not given here. Phe(3-CF3) = N[C@@H](Cc1cccc(C(F)(F)F)c1)C(=O)O; Ala(morpholin-4-yl) = N[C@@H](CN1CCOCC1)C(=O)O; Phe(4-COOH) = N[C@@H](Cc1ccc(C(=O)O)cc1)C(=O)O; Bip = N[C@@H](Cc1ccc(-c2ccccc2)cc1)C(=O)O; Phe(3-Cl) = N[C@@H](Cc1cccc(Cl)c1)C(=O)O; Phe(3-Me) = Cc1cccc(C[C@H](N)C(=O)O)c1; γGlu = O=C(O)[C@H](CCC(=O)[*:2])N[*:1]; NH(CH2)12COOH = O=C(O)CCCCCCCCCCCCN*; Val(3-OH) = CC(C)(O)[C@H](N)C(=O)O; mTyr = N[C@@H](Cc1cccc(O)c1)C(=O)O; 4Pal = N[C@@H](Cc1ccncc1)C(=O)O; 2Thi = N[C@@H](Cc1cccs1)C(=O)O; Cha = N[C@@H](CC1CCCCC1)C(=O)O; Cit = NC(=O)NCCC[C@H](N)C(=O)O; Ile(3ξ) = CCC(C)[C@H](N)C(=O)O; Thr(3ξ) = CC(O)[C@H](N)C(=O)O; 12Ado = NCCCCCCCCCCCC(=O)O; Carboxymethyl = O=C(O)C*; NMeA = CN[C@@H](C)C(=O)O; Orn = NCCC[C@H](N)C(=O)O; Aun = NCCCCCCCCCCC(=O)O; Dab = NCC[C@H](N)C(=O)O; Dap = NC[C@H](N)C(=O)O; AEEA = NCCOCCOCC(=O)O

Target: T1, PD-1/PD-L1 interaction (PE-labeled human PD-L1-Ig binding to Jurkat cell line over-expressing human PD-1) (Homo sapiens, UniProt Q15116)
T1 construct: expressed in transfected cells; host or cells: Jurkat
Assay: Jurkat-PD-1 Cell Binding High-Content Screening Assay (CBA)
Conditions: Jurkat-hPD-1 cells, PE-labeled PD-L1-Ig 20 nM final; read-out: Jurkat HPD1 PDL1 IC50
Method in brief: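 Compound is added first to the PD-1-expressing Jurkat cells and held 2 h at 37 °C in serum-containing DMEM. The fluorescent PD-L1 fusion follows at 20 nM final for 1 h. Fixed, Hoechst-stained cells are then imaged for bound label.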

T1 sequence (Q15116 25-288): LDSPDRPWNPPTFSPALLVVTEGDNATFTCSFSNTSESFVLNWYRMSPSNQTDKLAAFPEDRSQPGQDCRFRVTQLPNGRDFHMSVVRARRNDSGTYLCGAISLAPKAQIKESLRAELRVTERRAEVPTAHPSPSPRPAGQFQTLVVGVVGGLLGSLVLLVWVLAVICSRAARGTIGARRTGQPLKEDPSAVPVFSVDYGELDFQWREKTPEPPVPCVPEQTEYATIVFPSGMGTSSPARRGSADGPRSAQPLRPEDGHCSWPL

**Q.** Which IC50 does the source give for `CC(C)C[C@H]1NC(=O)[C@H](C)N(C)C(=O)[C@H](CCC(N)=O)NC(=O)[C@H](Cc2ccc(-c3ccccc3)cc2)NC(=O)[C@H](Cc2ccc(C(=O)O)cc2)NC(=O)[C@H](Cc2cccc(C(F)(F)F)c2)NC(=O)[C@H](CC(=O)O)NC(=O)[C@H](Cc2ccc(OCC(=O)O)cc2)NC(=O)[C@H](CN2CCOCC2)NC(=O)CSC[C@@H](C(=O)N[C@@H](CCN)C(=O)NCCOCCOCC(=O)N[C@@H](CCC(=O)NCCOCCOCC(=O)NCCCCCCCCCCCCC(=O)O)C(=O)O)NC(=O)[C@H](CC(=O)O)NC(=O)[C@H](C(C)(C)O)NC(=O)[C@H](CC2CCCCC2)NC(=O)[C@H](CCN)NC1=O` [Example 1171] ({CH2CO}-[Ala(morpholin-4-yl)]Y(Carboxymethyl)D[Phe(3-CF3)][Phe(4-COOH)][Bip]Q[NMeA][dL][Dab][Cha][Val(3-OH)]DC[Dab][AEEA][γGlu][AEEA]-{NH(CH2)12COOH}; thioether N-14) here?
**A.** The IC50 was 0.0412 µM.

**Q.** With `CC(C)C[C@H]1NC(=O)[C@H](C)N(C)C(=O)[C@H](Cc2ccc(O)cc2)NC(=O)[C@H](Cc2ccc(-c3ccccc3)cc2)NC(=O)[C@H](Cc2ccc(O)cc2)NC(=O)[C@H](Cc2cccc(O)c2)NC(=O)[C@H](CC(=O)O)NC(=O)[C@H](Cc2ccc(OCC(=O)O)cc2)NC(=O)[C@H](CN)NC(=O)CSC[C@@H](C(=O)N[C@@H](CCN)C(=O)NCCCCCCCCCCC(=O)O)NC(=O)[C@H](CCCN)NC(=O)[C@H](C(C)C)NC(=O)[C@H](CC2CCCCC2)NC(=O)[C@H](CCN)NC1=O` [Example 1257] ({CH2CO}-[Dap]Y(Carboxymethyl)D[mTyr]Y[Bip]Y[NMeA][dL][Dab][Cha]V[Orn]C[Dab][Aun]-OH; thioether N-14) as the compound, how does the IC50 read?
**A.** Its IC50 is 0.226 µM.

**Q.** Which IC50 does the source give for `CC(C)C[C@@H]1NC(=O)[C@H](Cc2c[nH]c3ccccc23)NC(=O)[C@H](CC(=O)O)NC(=O)[C@H](Cc2ccncc2)NC(=O)[C@H](Cc2ccc(OCC(=O)O)cc2)NC(=O)CSC[C@@H](C(=O)N[C@@H](CCCN)C(=O)NCCOCCOCC(=O)NCCCCCCCCCCCC(=O)O)NC(=O)[C@H](CO)NC(=O)[C@H](C(C)C)NC(=O)[C@H](CC2CCCCC2)NC(=O)[C@H](CCN)NC(=O)[C@@H](CC(C)C)NC(=O)[C@H](C)N(C)C(=O)[C@H](C(C)C)NC(=O)[C@H](Cc2ccc(-c3ccccc3)cc2)NC1=O` [Example 2141] ({CH2CO}-Y(Carboxymethyl)[4Pal]DWL[Bip]V[NMeA][dL][Dab][Cha]VSC[Orn][AEEA][12Ado]-OH; thioether N-14) here?
**A.** Its IC50 is 0.0132 µM.

**Q.** `Cc1cccc(C[C@@H]2NC(=O)[C@H](CC(=O)O)NC(=O)[C@H](Cc3ccc(C(=O)O)cc3)NC(=O)[C@H](Cc3cccs3)NC(=O)CSC[C@@H](C(=O)N[C@@H](CCN)C(=O)NCCCCCCCCCCC(=O)O)NC(=O)[C@H](CO)NC(=O)[C@H](C(C)(C)O)NC(=O)[C@H](CC3CCCCC3)NC(=O)[C@H](CCN)NC(=O)[C@@H](CC(C)C)NC(=O)[C@H](C)N(C)C(=O)[C@H](Cc3ccc(OCC(=O)O)cc3)NC(=O)[C@H](Cc3ccc(-c4ccccc4)cc3)NC(=O)[C@H](Cc3ccc(OCC(=O)O)cc3)NC2=O)c1` [Example 1284] ({CH2CO}-[2Thi][Phe(4-COOH)]D[Phe(3-Me)]Y(Carboxymethyl)[Bip]Y(Carboxymethyl)[NMeA][dL][Dab][Cha][Val(3-OH)]SC[Dab][Aun]-OH; thioether N-14) was tested. Which IC50 did it give?
**A.** Its IC50 is 0.0169 µM.

**Q.** With `CC(C)C[C@@H]1NC(=O)[C@H](Cc2c[nH]c3ccccc23)NC(=O)[C@H](CC(=O)O)NC(=O)[C@H](Cc2ccncc2)NC(=O)[C@H](Cc2ccc(OCC(=O)O)cc2)NC(=O)CSC[C@@H](C(=O)N[C@@H](CCCN)C(=O)NCCCCCCCCCCC(=O)O)NC(=O)[C@@H](CCC(N)=O)NC(=O)[C@H](C(C)C)NC(=O)[C@H](CC2CCCCC2)NC(=O)[C@H](CCN)NC(=O)[C@@H](CC(C)C)NC(=O)[C@H](C)N(C)C(=O)[C@H](C(C)C)NC(=O)[C@H](Cc2ccc(-c3ccccc3)cc2)NC1=O` [Example 1344] ({CH2CO}-Y(Carboxymethyl)[4Pal]DWL[Bip]V[NMeA][dL][Dab][Cha]V[dQ]C[Orn][Aun]-OH; thioether N-14) as the compound, how does the IC50 read?
**A.** Its IC50 is 0.0695 µM.

**Q.** For `CCC(C)[C@@H]1NC(=O)[C@H](Cc2ccc(-c3ccccc3)cc2)NC(=O)[C@H](CC(C)C)NC(=O)[C@H](Cc2c[nH]c3ccccc23)NC(=O)[C@H](CC(=O)O)NC(=O)[C@H](Cc2ccc(O)cc2)NC(=O)[C@H](Cc2ccncc2)NC(=O)CSC[C@@H](C(=O)N[C@@H](CCCN)C(=O)NCCOCCOCC(=O)NCCCCCCCCCCC(=O)O)NC(=O)[C@H](CO)NC(=O)[C@H](C(C)C)NC(=O)[C@H](CC2CCCCC2)NC(=O)[C@H](CCN)NC(=O)[C@@H](CC(C)C)NC(=O)[C@H](C)N(C)C1=O` (stereo partly drawn) [Example 2073] ({CH2CO}-[4Pal]YDWL[Bip][Ile(3ξ)][NMeA][dL][Dab][Cha]VSC[Orn][AEEA][Aun]-OH; thioether N-14), which IC50 is on record?
**A.** Its IC50 is 0.044 µM.

**Q.** Which IC50 does the source give for `CC(C)C[C@H]1NC(=O)[C@H](C)N(C)C(=O)[C@H](Cc2ccc(OCC(=O)O)cc2)NC(=O)[C@H](Cc2ccc(-c3ccccc3)cc2)NC(=O)[C@H](Cc2ccc(C(=O)O)cc2)NC(=O)[C@H](Cc2cccc(Cl)c2)NC(=O)[C@H](CC(=O)O)NC(=O)[C@H](Cc2ccc(OCC(=O)O)cc2)NC(=O)[C@H]([C@@H](C)O)NC(=O)CSC[C@@H](C(=O)N[C@@H](CCN)C(=O)NCCCCCCCCCCC(=O)O)NC(=O)[C@H]([C@@H](C)O)NC(=O)[C@H](C(C)C)NC(=O)[C@H](CC2CCCCC2)NC(=O)[C@H](CCN)NC1=O` [Example 1232] ({CH2CO}-TY(Carboxymethyl)D[Phe(3-Cl)][Phe(4-COOH)][Bip]Y(Carboxymethyl)[NMeA][dL][Dab][Cha]VTC[Dab][Aun]-OH; thioether N-14) here?
**A.** Its IC50 is 0.0341 µM.

**Q.** Which IC50 does the source give for `CC(C)C[C@H]1NC(=O)[C@H](C)N(C)C(=O)[C@H](CCCNC(N)=O)NC(=O)[C@H](Cc2ccc(-c3ccccc3)cc2)NC(=O)[C@H](C(C)C)NC(=O)[C@H](Cc2c[nH]c3ccccc23)NC(=O)[C@H](CC(=O)O)NC(=O)[C@H](Cc2ccc(OCC(=O)O)cc2)NC(=O)[C@H](CCCNC(=N)N)NC(=O)CSC[C@@H](C(=O)N[C@@H](CCN)C(=O)NCCCCCCCCCCC(=O)O)NC(=O)[C@H]([C@@H](C)O)NC(=O)[C@H](C(C)C)NC(=O)[C@H](CC2CCCCC2)NC(=O)[C@H](CCN)NC1=O` [Example 1353] ({CH2CO}-RY(Carboxymethyl)DWV[Bip][Cit][NMeA][dL][Dab][Cha]VTC[Dab][Aun]-OH; thioether N-14) here?
**A.** Its IC50 is 0.0163 µM.

**Q.** How did the IC50 turn out when `CC(C)C[C@H]1NC(=O)[C@H](C)N(C)C(=O)[C@H](Cc2ccc(OCC(=O)O)cc2)NC(=O)[C@H](Cc2ccc(-c3ccccc3)cc2)NC(=O)[C@H](Cc2ccc(OCC(=O)O)cc2)NC(=O)[C@H](Cc2c[nH]c3ccccc23)NC(=O)[C@H](CC(=O)O)NC(=O)[C@H](Cc2ccc(OCC(=O)O)cc2)NC(=O)[C@H]([C@@H](C)O)NC(=O)CSC[C@@H](C(=O)N[C@@H](CCN)C(=O)NCCOCCOCC(=O)NCCCCCCCCCCC(=O)O)NC(=O)[C@H](CO)NC(=O)[C@H](C(C)C)NC(=O)[C@H](CC2CCCCC2)NC(=O)[C@H](CCC(=O)O)NC1=O` [Example 1399] ({CH2CO}-TY(Carboxymethyl)DWY(Carboxymethyl)[Bip]Y(Carboxymethyl)[NMeA][dL]E[Cha]VSC[Dab][AEEA][Aun]-OH; thioether N-14) was run?
**A.** Its IC50 is 0.0688 µM.

**Q.** For `CC(C)C[C@@H]1NC(=O)[C@H](Cc2c[nH]c3ccccc23)NC(=O)[C@H](CC(=O)O)NC(=O)[C@H](Cc2ccc(C(=O)O)cc2)NC(=O)[C@H](Cc2ccncc2)NC(=O)CSC[C@@H](C(=O)N[C@@H](CCN)C(=O)NCCOCCOCC(=O)NCCCCCCCCCCC(=O)O)NC(=O)[C@H](CCC(=O)O)NC(=O)[C@H](C(C)(C)O)NC(=O)[C@H](CC2CCCCC2)NC(=O)[C@H](CCN)NC(=O)[C@@H](CC(C)C)NC(=O)[C@H](C)N(C)C(=O)[C@H](C(C)C)NC(=O)[C@H](Cc2ccc(-c3ccccc3)cc2)NC1=O` [Example 1429] ({CH2CO}-[4Pal][Phe(4-COOH)]DWL[Bip]V[NMeA][dL][Dab][Cha][Val(3-OH)]EC[Dab][AEEA][Aun]-OH; thioether N-14), which IC50 is on record?
**A.** The IC50 was 0.143 µM.

**Q.** `Cc1cccc(C[C@@H]2NC(=O)[C@H](CC(=O)O)NC(=O)[C@H](Cc3ccncc3)NC(=O)[C@H](Cc3ccc(OCC(=O)O)cc3)NC(=O)CSC[C@@H](C(=O)N[C@@H](CCCN)C(=O)NCCOCCOCC(=O)NCCCCCCCCCCC(=O)O)NC(=O)[C@H]([C@@H](C)O)NC(=O)[C@H](C(C)C)NC(=O)[C@H](CC3CCCCC3)NC(=O)[C@H](CCN)NC(=O)[C@@H](CC(C)C)NC(=O)[C@H](C)N(C)C(=O)[C@H](Cc3ccc(OCC(=O)O)cc3)NC(=O)[C@H](Cc3ccc(-c4ccccc4)cc3)NC(=O)[C@H](Cc3ccc(OCC(=O)O)cc3)NC2=O)c1` [Example 1361] ({CH2CO}-Y(Carboxymethyl)[4Pal]D[Phe(3-Me)]Y(Carboxymethyl)[Bip]Y(Carboxymethyl)[NMeA][dL][Dab][Cha]VTC[Orn][AEEA][Aun]-OH; thioether N-14) was tested. Which IC50 did it give?
**A.** The IC50 was 0.0161 µM.

**Q.** Which IC50 does the source give for `CC(=O)NCCCC[C@@H]1NC(=O)[C@H](Cc2ccc(-c3ccccc3)cc2)NC(=O)[C@H](C(C)C)NC(=O)[C@H](Cc2cccc(C)c2)NC(=O)[C@H](CC(=O)O)NC(=O)[C@H](Cc2ccc(OCC(=O)O)cc2)NC(=O)[C@H](CCCNC(=N)N)NC(=O)CSC[C@@H](C(=O)N[C@H](CCC(=O)O)C(=O)NCCCCCCCCCCCC(=O)O)NC(=O)[C@H](C(C)O)NC(=O)[C@H](C(C)C)NC(=O)[C@H](CC2CCCCC2)NC(=O)[C@H](CCN)NC(=O)[C@@H](CC(C)C)NC(=O)[C@H](C)N(C)C1=O` (stereo partly drawn) [Example 2388] ({CH2CO}-RY(Carboxymethyl)D[Phe(3-Me)]V[Bip]K(Ac)[NMeA][dL][Dab][Cha]V[Thr(3ξ)]C[dE][12Ado]-OH; thioether N-14) here?
**A.** The IC50 was 0.0083 µM.
